Experiments:
mice = assay: antihypoxia test: survival duration of mice in normobaric atmosphere of 96% nitrogen and 4% oxygen; type: in vivo
Text: The antihypoxia test measures the survival duration of mice in a normobaric atmosphere consisting of 96% nitrogen and 4% oxygen, at ambient temperature. The mice are considered dead when they stop visible aspiration. The test indicates potential clinical utility in situations of central nervous system hypoxia, such as occurs following stroke, cardiac arrest, and traumatic accidents.

Estimated LD50 = type: in vivo; conditions: ip
in vivo = conditions: ip

SMILES: O=C1N(c2cccc(Cl)c2)N=C2C3CC4CC(C3)CC12C4 [3-(3-Chlorophenyl)-3,4-diazatetracyclo[6.3.1.1^6,10.0^1,5]tridec-4-en-2-one]
- Antihypoxia, Survial Minutes, Compound (mice; 2.5 mg/kg ip, N=10, ambient temp., control 8.7, P NS (P > 0.05)): 8.0 min
- Antihypoxia, Survial Minutes, Compound (mice; 5 mg/kg ip, N=10, ambient temp., control 8.7, P <0.05): 10.5 min
- Antihypoxia, Survial Minutes, Compound (mice; 10 mg/kg ip, N=10, ambient temp., control 6.9, P <0.05): 9.5 min
- Antihypoxia, Survial Minutes, Compound (mice; 25 mg/kg ip, N=5, ambient temp., control 8.7, P 0.075): 13.0 min
- Antihypoxia, Survial Minutes, Compound (mice; 25 mg/kg ip, N=10, ambient temp., control 6.9, P <0.05): 12.6 min
- prolongation of survival of mice (in words) (mice; 25 mg/kg, intraperitoneally): prolonged the survival of mice by a very significant margin
- Estimated LD50 (Estimated LD50): > 100 mg/kg
- TD50 (in vivo): 25 mg/kg

— patent publication US4732909A, “3-(3-halophenyl-3,4-diazatetracyclo-[6.3.1.1^6,10.0^1,5 ]tridec-4-en-2-one compounds and use thereof to treat hypoxia” (Pennwalt Corporation, priority 1987, dated 1988)
